Data published in PMC10382584, “Macrocyclization of linear molecules by deep learning to facilitate macrocyclic drug candidates discovery” (Nature Communications, 2023).
Where “and” joins values, the source holds several entries; their conditions need not be identical. Equal entries are not always repeated. Where two headings read alike, the source gives them in different places.

Columns and labels:
JAK2 = molecular target: T1, JAK2 (Homo sapiens, UniProt O60674); experiment: JAK2 enzyme assay (Z'-LYTE kinase assay kit); type: biochemical
T1 construct: 0.05–0.42 ng JAK2, 2 μM peptide substrate (Tyr06)
Method: JAK kinase activity assays were performed using Z’-LYTETM kinase assay kit (Life Technologies, pv4122). […] The mixture was added into the 384-well microplate, shaken gently, and then incubated at room temperature for 1 h. Subsequently, 5 μL development solution was added to the well for incubating another 1 h. Finally, 5 μL stop reagent was added to stop the reaction. […] IC50 values were calculated using GraphPad Prism v8.0.3, and three parallel experiments were performed.

SET-2 cells = experiment: Cell proliferation assay (CCK-8), SET-2 cells; type: cell-based, human; conditions: for Inhibition (%): single wells, replicates 1 and 2
Method: (§1) The human erythroid leukemia (HEL 92.1.7) cells were purchased from the American Type Culture Collection (ATCC, TIB-180), and the human megakaryoblastic (SET2) cells were obtained from German Collection of Microorganisms and Cell Cultures (DSMZ, ACC 608). The anti-proliferative activities of compounds were evaluated using WST-8 cell counting kit-8 (Elabscience). HEL and SET-2 cells were seeded at 5000 cells/well in 70 μL RPMI-1640 medium (Hyclon) with 10% FBS (Gibco) to the 96-well plate and incubated overnight at 37 °C with 5% CO2. The compounds were serially diluted in RPMI-1640 medium, and cells were treated separately with 30 μL various concentrations of compounds for 72 h. The final DMSO concentration in the culture wells was 0.1%, which had no effect on the cell viability. Finally, 10 μL of CCK-8 solution was added into the wells. 4 h later, the absorbance values at 450 nm were recorded. IC50 values were determined using GraphPad Prism v8.3.0, and three parallel experiments were performed.

HEL cells = experiment: Cell proliferation assay (CCK-8), HEL cells; type: cell-based, human; conditions: for Inhibition (%): single wells, replicates 1 and 2
Method: as §1

[1] = system: JAK2-STAT signaling pathways in HEL cells; experiment: Western blot analysis of JAK2-STAT signaling in HEL cells; type: cell-based, human; conditions: 0.3-10 μM, 0.5 h
Method: HEL cells were added into six-well plates (2 × 10^6 cells/well) and then put into the incubator (37 °C, 5% CO2). After 24 h, the tested compounds were diluted in RPMI-1640 medium (final DMSO concentration = 0.1%) with different concentrations (0 μM, 0.3 μM, 1 μM, 3 μM, and 10 μM) was added separately into the wells, and incubated for another 0.5 h, then cells were collected and lysed. Proteins from each sample were isolated by SDS-PAGE and transferred to PVDF membrane. The membranes were blocked in 5% milk (TBST) for 1 h at room temperature, and subsequently incubated with the indicated primary antibody in blocking buffer overnight at 4 °C. Primary antibodies were used as follows: p-Y1007/8-JAK2 (#3771, CST, 1:1000), p-Y221-JAK2 (#11150, SAB, 1:500), p-Y705-STAT3 (#11045, SAB, 1:1000), p-Y694-STAT5 (#13386, SAB, 1:2000), STAT3 (10253-2-AP, Proteintech, 1:4000), STAT5 (12071-1-AP, Proteintech, 1:4000), JAK2 (E-AB-70193, Elabscience, 1:2000) and β-Actin (E-AB-20034, Elabscience, 1:10000). Then the membranes were washed with TBST (3 × 5 min), incubated with HRP-conjugated secondary antibody for 1 h at room temperature, washed again, and then exposed by chemiluminescence method using the enhanced ECL immunoblotting system (Tanon, Shanghai, China). All the experiments were repeated in triplicate. Blot bands were quantified by densitometry using Image J software v1.51.

In vivo PK study in mice = conditions: mice
Method: The mice were separately administered to a group of three mice per time point for intravenous (5 mg/kg) or oral administration (5 mg/kg). […] Then the samples were separated by centrifugation and analyzed by LC-MS/MS (XEVO TQ-S) to determine the plasma drug concentrations. The PK parameters were calculated using the noncompartment model with Phoenix WinNonLin v8.0. The animal experimental procedures were approved by the Medicine Research Ethics Committee of Hangzhou Leading Pharmatech Co., Ltd.
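Wherever AUCinf is given: mice dosed intravenously or orally, three animals per time point, plasma drug levels quantified by LC-MS/MS, PK parameters derived by noncompartmental analysis in Phoenix WinNonLin.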
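Wherever Cmax is given: mice dosed intravenously or orally, three animals per time point, plasma drug levels quantified by LC-MS/MS, PK parameters derived by noncompartmental analysis in Phoenix WinNonLin.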
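Wherever T1/2 is given: mice dosed intravenously or orally, three animals per time point, plasma drug levels quantified by LC-MS/MS, PK parameters derived by noncompartmental analysis in Phoenix WinNonLin.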
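Wherever Tmax is given: mice dosed intravenously or orally, three animals per time point, plasma drug levels quantified by LC-MS/MS, PK parameters derived by noncompartmental analysis in Phoenix WinNonLin.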

T1 sequence (O60674 whole entry): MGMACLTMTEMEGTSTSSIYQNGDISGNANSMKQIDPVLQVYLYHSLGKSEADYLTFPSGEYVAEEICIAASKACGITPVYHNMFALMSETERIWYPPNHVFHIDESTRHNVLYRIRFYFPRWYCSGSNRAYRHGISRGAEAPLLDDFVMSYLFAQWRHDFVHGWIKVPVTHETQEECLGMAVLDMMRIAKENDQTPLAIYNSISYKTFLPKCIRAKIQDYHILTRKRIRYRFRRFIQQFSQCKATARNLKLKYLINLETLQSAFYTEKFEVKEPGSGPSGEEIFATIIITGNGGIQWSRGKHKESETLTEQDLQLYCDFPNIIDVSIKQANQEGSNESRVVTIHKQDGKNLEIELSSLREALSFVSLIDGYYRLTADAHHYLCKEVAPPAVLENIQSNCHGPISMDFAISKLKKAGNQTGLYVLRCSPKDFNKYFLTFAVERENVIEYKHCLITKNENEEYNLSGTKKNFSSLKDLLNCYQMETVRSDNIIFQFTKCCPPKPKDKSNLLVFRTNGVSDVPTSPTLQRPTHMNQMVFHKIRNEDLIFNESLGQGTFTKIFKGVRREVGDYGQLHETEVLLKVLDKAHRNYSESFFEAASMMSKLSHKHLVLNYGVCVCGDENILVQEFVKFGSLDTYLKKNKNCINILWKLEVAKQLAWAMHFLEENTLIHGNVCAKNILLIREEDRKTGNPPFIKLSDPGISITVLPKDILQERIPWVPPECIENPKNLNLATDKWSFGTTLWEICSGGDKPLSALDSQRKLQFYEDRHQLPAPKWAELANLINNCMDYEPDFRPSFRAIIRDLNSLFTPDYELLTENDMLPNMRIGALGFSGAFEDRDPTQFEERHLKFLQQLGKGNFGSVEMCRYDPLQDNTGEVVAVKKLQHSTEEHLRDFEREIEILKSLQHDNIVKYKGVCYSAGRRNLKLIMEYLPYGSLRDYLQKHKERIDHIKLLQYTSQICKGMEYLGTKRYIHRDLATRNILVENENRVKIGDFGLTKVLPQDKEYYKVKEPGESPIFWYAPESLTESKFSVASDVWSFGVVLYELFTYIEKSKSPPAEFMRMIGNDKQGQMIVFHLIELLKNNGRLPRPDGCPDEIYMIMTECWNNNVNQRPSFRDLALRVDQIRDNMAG

SMILES: Cc1cnc2nc1Nc1cccc(c1)COCc1cc(ccc1OCCN1CCCC1)N2 [Compound 1]
- IC50 (JAK2; JAK2, 25 μM ATP, mean ± SD, n = 3, read-out: Enzyme Inhibitory Activity (IC50)): 0.07 µM
- IC50 (JAK2; JAK2 enzyme, mean of 3 replicates, read-out: IC50/μM mean, enzyme inhibitory activity): 0.07 µM
- IC50 (JAK2; JAK2 enzyme, mean ± SD of 3 replicates, read-out: IC50/μM mean ± SD, enzyme inhibitory activity): 0.07 ± 0.006 µM
- IC50 (JAK2; JAK2 enzyme, single-replicate fits (replicates 1-3), read-out: IC50/μM (individual replicates), enzyme inhibitory activity): 0.072 µM and 0.064 µM and 0.075 µM
- Inhibition (%) (SET-2 cells; SET-2 cell lines, 0.0977 μM): 5.3742% and 3.7022% and -1.2341% and 4.261% and 8.580% and 6.307%
- Inhibition (%) (SET-2 cells; SET-2 cell lines, 0.1953 μM): 7.5239% and 7.2850% and 0.8360% and 9.148% and 16.307% and 12.784%
- Inhibition (%) (SET-2 cells; SET-2 cell lines, 0.3906 μM): 10.3105% and 11.0271% and 3.0653% and 12.898% and 19.375% and 18.352%
- Inhibition (%) (SET-2 cells; SET-2 cell lines, 0.7813 μM): 17.3965% and 16.7596% and 8.4793% and 17.557% and 26.420% and 24.261%
- Inhibition (%) (SET-2 cells; SET-2 cell lines, 1.5625 μM): 26.9506% and 28.1449% and 22.3328% and 35.966% and 41.989% and 43.580%
- Inhibition (%) (SET-2 cells; SET-2 cell lines, 3.1250 μM, 3.125 µM): 60.6290% and 56.0111% and 56.4092% and 69.034% and 74.716% and 74.943%
- Inhibition (%) (SET-2 cells; SET-2 cell lines, 6.2500 μM, 6.25 µM): 97.5717% and 97.1736% and 97.3328% and 98.920% and 99.830% and 100.398%
- Inhibition (%) (SET-2 cells; SET-2 cell lines, 12.5000 μM, 12.5 µM): 96.8551% and 96.6959% and 97.3328% and 99.716% and 100.170% and 100.398%
- IC50 (SET-2 cells; SET-2 cell lines, mean of 2 replicates, read-out: IC50/μM mean, cellular antiproliferative activity): 1.64 µM
- IC50 (SET-2 cells; SET-2 cell lines, mean ± sd of 2 replicates, read-out: IC50/μM mean ± sd, cellular antiproliferative activity): 1.64 ± 0.03 µM
- IC50 (SET-2 cells; SET-2 cell lines, single-replicate fits, read-out: IC50/μM (individual replicates), cellular antiproliferative activity): 1.62 µM and 1.66 µM
- IC50 (SET-2 cells; SET-2 cells, 72 h, mean ± SD, read-out: Cellular Antiproliferative Activity (IC50) SET-2): 1.64 ± 0.03 µM
- Inhibition (%) (HEL cells; HEL cell lines, 0.0977 μM): 2.2777% and 0.5143% and -1.6899% and 3.096% and 4.826% and 5.277%
- Inhibition (%) (HEL cells; HEL cell lines, 0.1953 μM): 5.8046% and 4.8494% and 8.1558% and 6.255% and 8.812% and 5.578%
- Inhibition (%) (HEL cells; HEL cell lines, 0.3906 μM): 18.9566% and 20.0588% and 8.5966% and 7.458% and 10.165% and 8.511%
- Inhibition (%) (HEL cells; HEL cell lines, 0.7813 μM): 26.0838% and 31.3005% and 30.4188% and 11.594% and 18.814% and 14.151%
- Inhibition (%) (HEL cells; HEL cell lines, 1.5625 μM): 34.0926% and 44.3057% and 45.4813% and 25.056% and 31.900% and 30.547%
- Inhibition (%) (HEL cells; HEL cell lines, 3.1250 μM, 3.125 µM): 46.4364% and 51.6532% and 53.8575% and 56.869% and 60.404% and 60.629%
- Inhibition (%) (HEL cells; HEL cell lines, 6.2500 μM, 6.25 µM): 64.2910% and 65.8339% and 68.7730% and 85.974% and 88.155% and 87.628%
- Inhibition (%) (HEL cells; HEL cell lines, 12.5000 μM, 12.5 µM): 80.4555% and 78.6187% and 81.4842% and 94.397% and 94.999% and 94.924%
- IC50 (HEL cells; HEL cell lines, mean of 2 replicates, read-out: IC50/μM mean, cellular antiproliferative activity): 2.41 µM
- IC50 (HEL cells; HEL cell lines, mean ± sd of 2 replicates, read-out: IC50/μM mean ± sd, cellular antiproliferative activity): 2.41 ± 0.2 µM
- IC50 (HEL cells; HEL cell lines, single-replicate fits, read-out: IC50/μM (individual replicates), cellular antiproliferative activity): 2.27 µM and 2.55 µM
- IC50 (HEL cells; HEL cells, 72 h, mean ± SD, read-out: Cellular Antiproliferative Activity (IC50) HEL): 2.41 ± 0.2 µM
- activation of downstream signaling molecule STAT3 and STAT5 [1]: significantly inhibited
- phosphorylation of JAK2 at Y1007/8 site [1]: increased
- phosphorylation of JAK2 at Y221 site ([1]; dose-dependent): efficiently blocked
- AUCinf (In vivo PK study in mice; iv (5 mg/kg)): 752.47 ng·h/mL
- Cmax (In vivo PK study in mice; iv (5 mg/kg)): 76.57 ng/mL
- T1/2 (In vivo PK study in mice; iv (5 mg/kg)): 5.35 h
- Tmax (In vivo PK study in mice; iv (5 mg/kg)): 4.00 h
- AUCinf (In vivo PK study in mice; po (5 mg/kg)): 106.00 ng·h/mL
- Cmax (In vivo PK study in mice; po (5 mg/kg)): 10.35 ng/mL
- T1/2 (In vivo PK study in mice; po (5 mg/kg)): 4.47 h
- Tmax (In vivo PK study in mice; po (5 mg/kg)): 6.00 h
- F (bioavailability) (In vivo PK study in mice; po (5 mg/kg) vs iv (5 mg/kg)): 14.1%
